These results are taken from article PMC12155096 (International Journal of Molecular Sciences, 2025).

Counter-ions that a name gives are not always drawn.

Sequence of human CYP2C9 (P11712 whole entry): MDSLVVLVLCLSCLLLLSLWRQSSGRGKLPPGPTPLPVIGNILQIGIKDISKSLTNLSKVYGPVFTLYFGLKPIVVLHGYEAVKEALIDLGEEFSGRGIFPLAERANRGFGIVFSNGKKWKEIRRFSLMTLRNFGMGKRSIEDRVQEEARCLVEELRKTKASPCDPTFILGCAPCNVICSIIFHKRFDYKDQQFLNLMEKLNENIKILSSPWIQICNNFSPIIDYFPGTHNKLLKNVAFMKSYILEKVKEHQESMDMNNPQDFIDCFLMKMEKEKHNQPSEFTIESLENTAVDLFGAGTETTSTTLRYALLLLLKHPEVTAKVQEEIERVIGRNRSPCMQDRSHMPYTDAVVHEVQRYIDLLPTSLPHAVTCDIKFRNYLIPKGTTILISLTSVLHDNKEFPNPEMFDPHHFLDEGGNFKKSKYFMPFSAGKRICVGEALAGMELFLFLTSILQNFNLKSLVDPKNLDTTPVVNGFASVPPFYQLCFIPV

The first data set deals with human CYP2D6 (Homo sapiens, UniProt P10635).
Sequence of human CYP2D6 (P10635 whole entry): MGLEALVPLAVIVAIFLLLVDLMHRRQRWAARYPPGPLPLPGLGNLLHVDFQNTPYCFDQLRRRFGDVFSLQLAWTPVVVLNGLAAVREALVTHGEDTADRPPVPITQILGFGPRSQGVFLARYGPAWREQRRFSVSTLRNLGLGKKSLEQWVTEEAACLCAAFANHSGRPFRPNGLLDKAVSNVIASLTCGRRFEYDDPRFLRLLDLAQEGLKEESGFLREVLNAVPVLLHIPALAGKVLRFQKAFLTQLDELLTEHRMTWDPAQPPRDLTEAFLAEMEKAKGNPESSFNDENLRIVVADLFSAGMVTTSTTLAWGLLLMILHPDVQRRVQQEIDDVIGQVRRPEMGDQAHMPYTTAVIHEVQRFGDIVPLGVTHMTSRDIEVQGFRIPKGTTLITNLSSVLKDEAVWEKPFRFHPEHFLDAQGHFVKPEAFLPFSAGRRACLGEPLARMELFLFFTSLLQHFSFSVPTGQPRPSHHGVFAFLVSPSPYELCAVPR
Assay: not given
Settings: not given; call rule not given here
One may read the IC50 as the concentration at which inhibition is half-maximal. The low end stands for higher potency, the high end for lower potency. Compound `CCCOC(C(=O)OC1CCN(C)CC1)(c1ccccc1)c1ccccc1.Cl` [Propiverine hydrochloride] returned an IC50 of 6.81 µM. That is a single-digit micromolar value.

The target in another data set is human CYP2C19 (Homo sapiens, UniProt P33261).
Sequence of human CYP2C19 (P33261 whole entry): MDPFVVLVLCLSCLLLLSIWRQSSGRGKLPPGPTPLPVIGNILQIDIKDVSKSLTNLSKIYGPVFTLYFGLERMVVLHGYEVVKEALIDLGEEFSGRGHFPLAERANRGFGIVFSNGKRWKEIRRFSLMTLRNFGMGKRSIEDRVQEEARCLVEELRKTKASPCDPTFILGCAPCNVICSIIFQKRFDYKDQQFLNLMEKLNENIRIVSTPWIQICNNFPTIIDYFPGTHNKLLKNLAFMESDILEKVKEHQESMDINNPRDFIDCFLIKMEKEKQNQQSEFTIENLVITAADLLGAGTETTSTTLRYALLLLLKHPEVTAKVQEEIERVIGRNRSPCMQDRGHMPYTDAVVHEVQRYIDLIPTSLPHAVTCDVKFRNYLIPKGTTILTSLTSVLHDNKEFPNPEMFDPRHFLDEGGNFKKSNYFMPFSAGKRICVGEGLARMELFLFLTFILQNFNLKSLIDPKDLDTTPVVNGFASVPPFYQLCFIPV
Assay: not given
Settings: not given
With `CN(CCOc1ccc(CC2SC(=O)NC2=O)cc1)c1ccccn1` (stereo not drawn) [Rosiglitazone maleate], the “CYP2C19 AC50 (half-maximal activity concentration)” value was “Inconclusive inhibitor”.

A further data set has as its target human CYP2C9 (Homo sapiens, UniProt P11712). The data set is described as follows: biochemical.
Settings: not given
As a reminder, the AC50 is the concentration giving half of the maximal activity seen. A low value points to greater potency. As to `O=C(O)Cc1ccccc1Oc1ccc(Cl)cc1Cl` [Fenclofenac], the AC50 was found to be 29.7 ± 12.5 µM.

`O=C(O)c1ccccc1Nc1cccc(C(F)(F)F)c1` [Flufenamic acid] gave an AC50 of 23.9 ± 9.43 µM.

Turning to `O=C(OCC(COC(=O)c1cccnc1)(COC(=O)c1cccnc1)COC(=O)c1cccnc1)c1cccnc1` [Niceritrol], half-maximal inhibition (IC50) was put at 3.44 µM.

`COc1ccc(S(=O)(=O)N2c3ccc(Cl)cc3[C@](O)(c3ccccc3Cl)[C@@H]2C(=O)N2CCC[C@H]2C(N)=O)cc1OC` [Relcovaptan] had an IC50 of 27.7 ± 9.09 µM.

`O=C(O)Cn1c(=O)n(Cc2ccc(Br)cc2F)c(=O)c2ccc(Cl)cc21` [Zenarestat] yielded a half-maximal activity concentration (AC50) of 14.4 ± 0.97 µM.

Staying with this data set, now noted: CYP2C9 AC50 (half-maximal activity concentration).
The compound `C[C@]12CCC(=O)C=C1CC[C@@H]1[C@@H]2CC[C@@]2(C)[C@H]1CC[C@]2(C)O` [17-Methyltestosterone] had an AC50 of 32.7 µM.

Turning to `CCCCCCCCCC(=O)O` [Decanoic acid], the AC50 was 69.7 µM.

The compound `Fc1ccc(C(c2ccc(F)cc2)N2CCN(C/C=C/c3ccccc3)CC2)cc1` [Flunarizine] showed a concentration at half-maximal activity (AC50) of 14.9 µM.

Compound `COc1ccc(S(=O)(=O)Nc2nnc(CC(C)C)s2)cc1` [Glysobuzole] had a half-maximal activity concentration (AC50) of 12.5 µM.

Take `O=C(O)Cn1c(C(=O)Nc2nc(-c3ccccc3Cl)cs2)cc2ccccc21` [Lintitript]: the activity was half-maximal at 35.1 µM (AC50).

As to `CC(C)[C@H]1CC[C@H](C(=O)N[C@H](Cc2ccccc2)C(=O)O)CC1` [Nateglinide], the AC50 was 14 µM.

In the case of `CCCOC(=O)Cc1ccc(OCC(=O)N(CC)CC)c(OC)c1` [Propanidid], half-maximal activity (AC50) was put at 21.2 µM.

With `CC(=O)N(c1onc(C)c1C)S(=O)(=O)c1ccc(N)cc1` [Sulfisoxazole acetal], half-maximal activity (AC50) was put at 25.8 µM.

In turn, `O=C1OC(c2ccc(O)c(S(=O)(=O)O)c2)(c2ccc(O)c(S(=O)(=O)O)c2)c2c(Br)c(Br)c(Br)c(Br)c21` [Sulfobromophthalein] came in with a half-maximal activity concentration (AC50) of 43.6 µM.

`CCCC(CCC)C(=O)O` [Valproic acid]: the AC50 worked out at 47.3 µM.

The data set is the same for the next values; noted with them: CYP2C9 IC50 (half-maximal inhibitory concentration).
In turn, `CC(C)C[C@H](NC(=O)[C@H](CCc1ccccc1)NC(=O)CN1CCOCC1)C(=O)N[C@@H](Cc1ccccc1)C(=O)N[C@@H](CC(C)C)C(=O)[C@@]1(C)CO1` [Carfilzomib] had a 50% inhibitory concentration (IC50) of 29.2 µM.

On to `CCOC(=O)O[C@]1(C(=O)OCCl)CC[C@H]2[C@@H]3CCC4=CC(=O)C=C[C@]4(C)[C@H]3[C@@H](O)C[C@@]21C` [Loteprednol etabonate, reference compound], for which it took 29.2 µM to reach half-maximal inhibition (IC50).

Compound `CC(C)(C)C(=O)OCOC(=O)[C@@H]1N2C(=O)[C@@H](NC(=O)[C@H](N)c3ccccc3)[C@H]2SC1(C)C` [Pivampicillin] came in with an IC50 of 23.6 µM.

Turning to `CCC1=C[C@@H]2CN(C1)Cc1c([nH]c3ccccc13)[C@@](C(=O)OC)(c1cc3c(cc1OC)N(C)[C@H]1[C@@](O)(C(=O)OC)[C@H](OC(C)=O)[C@]4(CC)C=CCN5CC[C@]31[C@@H]54)C2` [Vinorelbine tartrate], the IC50 turned out to be 21 µM.
